We go through one molecule from the RepoRT retention time repository (doi:10.1016/j.foodchem.2021.129757).

Common to all, as to conditions: stereoisomer not certain
Data set [1] can be described thus: RP, 100 × 0.5 mm, 2.7 µm, 45 °C, 0.015 mL/min, estimated dead time 0.83 min; A: water + 0.9% formic acid; B: acetonitrile + 0.9% formic acid; gradient (min/%B) 0/1 0.5/1 4/95 4.5/1 5/1.
Data set [2] is described as follows: RP, 50 × 0.5 mm, 2.7 µm, 35 °C, 0.01 mL/min, estimated dead time 0.62 min; A: water + 0.1% formic acid, pH 3; B: acetonitrile + 0.1% formic acid, pH 3; gradient (min/%B) 0/5 12/95 14/95 16/5.
Data set [3] is described as follows: Other, Phenomenex Kinetex PFP, 100 × 4.6 mm, 5 µm, 45 °C, 0.6 mL/min, estimated dead time 1.8 min; A: water + 0.1% trifluoroacetic acid, pH 2; B: methanol; gradient (min/%B) 0/40 20/72 21/40.
Data set [4] is described as follows: RP, 150 × 2.1 mm, 2.6 µm, 40 °C, 0.35 mL/min, estimated dead time 0.94 min; A: water + 0.1% formic acid, pH 3; B: acetonitrile + 0.1% formic acid, pH 3; gradient (min/%B) 0/0 1/0 12.5/100 14/100 14.2/0 15/0.
Data set [5] in a line: RP, 150 × 2.1 mm, 2.6 µm, 40 °C, 0.35 mL/min, estimated dead time 0.94 min; A: water + 0.1% formic acid, pH 3; B: acetonitrile + 0.1% formic acid, pH 3; gradient (min/%B) 0/0 1/5 7/45 8.5/80 10.5/80 11/5 12/5.
Data set [6] in a line: RP, Phenomenex Synergi Hydro-RP, 150 × 2 mm, 4 µm, 30 °C, 0.5 mL/min, estimated dead time 0.6 min; A: water + 0.1% formic acid, pH 3; B: acetonitrile + 0.1% formic acid, pH 3; gradient (min/%B) 0/5 1/5 35/45 40/100 45/100.
The nature of data set [7]: RP, Phenomenex Luna Omega Polar C18, 100 × 2.1 mm, 1.6 µm, 40 °C, 0.5 mL/min, estimated dead time 0.44 min; A: water + 0.5% formic acid; B: acetonitrile + 0.5% formic acid; gradient (min/%B) 0/5 3/50 3.1/100 5/100 5.1/5 7/5.
Data set [8] can be described thus: RP, Phenomenex Luna C18, 150 × 4.6 mm, 3 µm, 25 °C, 0.5 mL/min, estimated dead time 3.2 min; A: water + 0.1% formic acid, pH 3; B: acetonitrile + 0.1% formic acid, pH 3; gradient (min/%B) 0/0 30/30 35/40 50/80 52/80 60/0 65/0.
Data set [9] can be described thus: RP, Merck LiChrospher RP-18, 250 × 4 mm, 5 µm, 35 °C, 0.3 mL/min, estimated dead time 6.7 min; A: water + 0.5% formic acid; B: acetonitrile + 0.5% formic acid; gradient (min/%B) 0/5 10/5 30/15 45/20 65/20 95/54 110/63 115/5 135/5.
Data set [10] can be described thus: RP, Phenomenex Luna Omega Polar C18, 100 × 2.1 mm, 1.6 µm, 40 °C, 0.5 mL/min, estimated dead time 0.44 min; A: water + 0.1% formic acid + 10 mM ammonium formate; B: acetonitrile; gradient (min/%B) 0/5 8/20 10/100 12/100 12.1/5 14/5.
Data set [11] can be described thus: RP, Waters ACQUITY UPLC HSS T3, 100 × 2.1 mm, 1.8 µm, 30 °C, 0.4 mL/min, estimated dead time 0.55 min; A: water + 0.1% formic acid, pH 3; B: acetonitrile + 0.1% formic acid, pH 3; gradient (min/%B) 0/0 2/0 15/100 22/100 22.1/0 26/0.
Data set [12] can be described thus: RP, Agilent ZORBAX Eclipse XDB-C18, 100 × 2.1 mm, 1.8 µm, 50 °C, 0.4 mL/min, estimated dead time 0.55 min; A: water + 0.1% formic acid, pH 3; B: methanol + 0.1% formic acid, pH 3; gradient (min/%B) 0/2 10/100 14.5/100 14.51/2 16.5/2.
Data set [13] is described as follows: RP, Waters ACQUITY UPLC BEH C18, 100 × 2.1 mm, 1.7 µm, 65 °C, 0.4 mL/min, estimated dead time 0.55 min; A: water + 0.1% formic acid, pH 3; B: 80% acetonitrile + 20% acetone + 0.1% formic acid, pH 3; gradient (min/%B) 0/0 5/100 5.5/0 6/0.
The nature of data set [14]: RP, Waters ACQUITY UPLC BEH Shield RP18, 100 × 2.1 mm, 1.7 µm, 30 °C, 0.6 mL/min, estimated dead time 0.37 min; A: water + 0.1% formic acid, pH 3; B: acetonitrile + 0.1% formic acid, pH 3; gradient (min/%B) 0/0 2/0 7/10 22/95 22.1/0 26/0.
Data set [15] can be described thus: RP, Waters ACQUITY UPLC BEH Shield RP18, 150 × 2.1 mm, 1.7 µm, 40 °C, 0.4 mL/min, estimated dead time 0.83 min; A: water + 0.1% formic acid, pH 3; B: acetonitrile + 0.1% formic acid, pH 3; gradient (min/%B) 0/0 30/50 31/100 37/100 37.1/0.
A short description of data set [16]: RP, Agilent ZORBAX RRHD Eclipse Plus C18, 50 × 2.1 mm, 1.8 µm, 30 °C, 0.4 mL/min, estimated dead time 0.28 min; A: water + 0.1% formic acid, pH 3; B: acetonitrile + 0.1% formic acid, pH 3; gradient (min/%B) 0/1 5/10 8/25 9.1/99 10/99 12/1.
Data set [17] is described as follows: RP, Agilent ZORBAX RRHD Eclipse Plus C18, 50 × 2.1 mm, 1.8 µm, 30 °C, 0.4 mL/min, estimated dead time 0.28 min; A: water + 0.1% formic acid, pH 3; B: acetonitrile + 0.1% formic acid, pH 3; gradient (min/%B) 0/1 5/10 8/25 9.1/99 10/99 12/99.
The nature of data set [18]: RP, Merck Supelco SUPELCOSIL LC-C18, 250 × 4.6 mm, 5 µm, 40 °C, 1 mL/min, estimated dead time 2.6 min; A: water + 0.1% trifluoroacetic acid, pH 2; B: acetonitrile + 0.1% trifluoroacetic acid, pH 2; gradient (min/%B) 0/5 45/35 47/75 49/35 50/5.
Data set [19] is described as follows: RP, Agilent InfinityLab Poroshell 120 EC-C18, 100 × 3 mm, 2.7 µm, 25 °C, 0.4 mL/min, estimated dead time 1.1 min; A: water + 0.1% formic acid, pH 3; B: acetonitrile + 0.1% formic acid, pH 3; gradient (min/%B) 0/5 10/25 20/40 24/90 25/90 26/5 30/5.
A short description of data set [20]: RP, Phenomenex Synergi Hydro-RP, 250 × 2 mm, 4 µm, 25 °C, 0.2 mL/min, estimated dead time 2.5 min; A: water + 0.1% formic acid, pH 3; B: acetonitrile + 0.1% formic acid, pH 3; gradient (min/%B) 0/0.5 7/0.5 12/12.5 25/16.3 47/35 48/65 50/65 50.1/0.5.
Data set [21] in a line: RP, Waters Atlantis T3, 100 × 2.1 mm, 3 µm, 40 °C, 0.3 mL/min, estimated dead time 0.73 min; A: water + 0.1% trifluoroacetic acid, pH 2; B: acetonitrile + 0.1% trifluoroacetic acid, pH 2; gradient (min/%B) 0/10 1/10 6/40 7/50 8/50 14/70 16/80 20/10 25/10.
Data set [22] is described as follows: Other, Phenomenex Kinetex PFP, 100 × 4.6 mm, 2.6 µm, 35 °C, 1.5 mL/min, estimated dead time 0.71 min; A: water + 0.1% trifluoroacetic acid, pH 2; B: acetonitrile + 0.1% trifluoroacetic acid, pH 2; gradient (min/%B) 0/1 7/7.5 14/7.6 17/10 18.5/12 20/12.5 24/30 25/90 25.1/1 32/1.

Turning to `COc1cc(/C=C/C(=O)O)ccc1O` [Ferulic acid], the LC retention time in data set [1] is 2.44 min; in data set [2] it was 4.13 min; in data set [3], 7.59 min; in data set [4], 5.86 min; in data set [5], 5.86 min; in data set [6], 14.4 min. Further, the LC retention time in [7] is 2.51 min; in data set [8] it was 23.8 min; in data set [9], 61.3 min; in data set [10], 6.79 min; in data set [11] it was 9.48 min; in [12], 4.64 min. Besides, the LC retention time in data set [13] was 2.17 min; in [14] it was 12.5 min; in [15] it was 11.2 min; in data set [16] it was 7.16 min; in data set [17], 4.67 min; in data set [18], 21.7 min. The LC retention time was 9.17 min in [19], 32.7 min in data set [20], 7.28 min in data set [21] and 20.7 min in [22].
